Reference: article PMC9764201, “Half-calcified calmodulin promotes basal activity and inactivation of the L-type calcium channel CaV1.2” (The Journal of Biological Chemistry, 2022)

Tested on: CaV1.2
Test: Cell-attached single-channel recording of CaV1.2 variants in HEK 293T/17 cells
Assay type: cell-based, rat
Settings: 110 mM Ba2+, 0 mV from -80 mV; n=8; mean±SEM (Table S2)
Method: HEK 293T/17 cells (ATCC) were maintained as previously described ([15], [53]). For electrophysiology, Lipofectamine 2000 (Invitrogene) or JetPrime (Polyplus Transfection) was used to transiently transfect cells with indicated plasmid DNAs in 35 mm dishes. For biochemistry experiments, transient transfection of HEK 293T/17 cells in […] dishes was achieved using either JetPrime or, as previously described ([15], [53]), the calcium phosphate method. Cells were cotransfected with plasmids encoding the pore-forming α11.2 subunit N-terminally tagged with eCFP ([15], [53]) or mCherry ([54]) plus pGWIH-based plasmids encoding the auxiliary subunits rat β2A ([55]) and rabbit α2δ-1 ([56]) as previously described ([15], [53]). For all transfections, equimolar ratio of 1:1:1 was used for CaV1.2 channel subunits and later further optimized (JetPrime) for CaM (at ratio of 1:1:1:0.5 for α11.2:β2A:α2δ−1:CaM). Rat brain α11.2 (GenBank ID: M67515.1) N-terminally fused to eCFP was utilized as previously described ([15]). The point mutations in plasmids encoding single-residue I1654A, Y1657D (this report), and K1662E exchanges in α11.2 were generated via QuikChange II as previously described ([15], [53]) using N-terminally eCFP ([15], [53]) or mCherry tagged ([54]) rat brain α11.2 plasmid template DNAs. We studied CDI using mCherry-tagged α11.2 subunit coexpressed with the other, untagged CaV1.2 subunits and WT CaM or the calmodulin 34 mutant CaM34 (kindly provided by JP Adelman, ([8])). For some biochemical experiments shown in Fig. S2, YFP-tagged CaM was used ([32]).
Single-channel recordings were performed as described previously ([15], [31]). In brief, low noise raw data were recorded with an Axopatch 200B amplifier and data were sampled at 10 kHz with a low-pass filter at 2 kHz (3 dB, four pole Bessel) and digitalized with a Digidata 1440 digitizer. Recording electrodes were pulled from borosilicate capillary glass ([…]) with a Flaming/Brown micropipette puller (Model P-97, Sutter Instruments), heat polished, and coated with Sylgard (Sylgard 289) until close to the electrode tip. Electrode resistance in solution was usually 5 to 10 MΩ. To keep the membrane potential close to 0 mV the extracellular bath solution contained (in mM) 120 K-Glutamate, 25 KCl, 2 MgCl2, 1 CaCl2, 10 EGTA, 10 Hepes, and 2 Na2-ATP pH 7.4 (KOH). The intracellular pipette solution contained (in mM) 110 BaCl2 and 10 Hepes, adjusted to pH 7.4 (TEA-OH). Cells were depolarized for 2 s from a holding potential of -80 mV to 0 mV every 7 s. Event lists were created from raw Ba^2+ currents after leak and capacity transients were digitally subtracted by pClamp 10. Unitary current events were then analyzed based on the half-height criterium ([57]) using the single-channel software provided by pClamp 10.
For statistical analysis, single-channel parameters were corrected by the channel number (k), respectively, the maximum of simultaneously open channels (PMAX). The number of channels in the patch was estimated based on the observed simultaneous openings and is a precise parameter for k < 4, as included in this article and originally described by R. Horn ([58]). On average, 100 to 200 Ba^2+ current traces were recorded for each cell for each experimental condition for an appropriate statistical analysis.
Table S2. Biophysical properties of WT and Y1657D mutant CaV1.2 as determined by single channel recordings with 110 mM Ba2+. HEK 293T/17 cells were transiently transfected with eCFP-tagged rat CaV1.2 (WT versus Y1657D) plus α2δ1 and β2a. Single-channel parameter were corrected for the number of channels (k) in the patch. Availability denotes the number of active over […] traces. Popen (Po) is the open probability within active traces. Ipeak is the current flown through all channels in a patch at the time point of the current maximum and was corrected by the number of channels. Mean ensemble average (MEA) is the mean average current of all traces after being superimposed. […]

In the case of “CaV1.2: WT rat brain α11.2 with α2δ1 and β2A expressed in HEK 293T/17 cells”, the Availability is reported as 65±12%, the IPeak is reported as 21.2±5.3 fA and the “MEA (mean ensemble average)” value is reported as 8.5±2.4 fA. For the same substance, the “MOT (mean open time)” value was 1.4 ± 0.2 ms, the Po was 2.0±0.5% and the unitary i was 0.7±0.04 pA.
